The text below walks through data of ChEMBL document CHEMBL3217736, “Novel aspects in structureactivity relationships of profiled 1-aza-9-oxafluorenes as inhibitors of Alzheimer's disease-relevant kinases cdk1, cdk5 and gsk3” (Medchemcomm, 2012).

Test [1] has as its target Glycogen synthase kinase-3 beta (Homo sapiens, UniProt P49841). Briefly: Inhibition of human recombinant GST-fused GSK-3beta expressed in insect Sf9 cells using RBER-CHKtide as substrate assessed as incorporation of 33Pi after 60 mins by microplate scintillation counting analysis.
For test [2], the target named is Cyclin-dependent kinase 1/cyclin B1 (Homo sapiens, UniProt P06493). In words: (§1) Inhibition of human recombinant GST-fused CDK1/cyclin B expressed in insect Sf9 cells using RBER-CHKtide as substrate assessed as incorporation of 33Pi after 60 mins by microplate scintillation counting analysis.
Sequence of Cyclin-dependent kinase 1/cyclin B1 (P06493 whole entry, the tested form may be a part): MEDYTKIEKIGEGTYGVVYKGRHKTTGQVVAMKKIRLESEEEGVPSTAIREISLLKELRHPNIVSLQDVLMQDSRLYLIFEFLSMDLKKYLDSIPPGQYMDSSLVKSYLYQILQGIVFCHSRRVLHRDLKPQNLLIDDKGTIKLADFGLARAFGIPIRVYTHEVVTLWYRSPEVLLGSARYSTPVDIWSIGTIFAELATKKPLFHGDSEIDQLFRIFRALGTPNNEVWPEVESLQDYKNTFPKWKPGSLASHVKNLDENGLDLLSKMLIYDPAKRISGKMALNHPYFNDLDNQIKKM
Sequence of Cyclin-dependent kinase 1/cyclin B1 (P14635 whole entry, further chain, the tested form may be a part): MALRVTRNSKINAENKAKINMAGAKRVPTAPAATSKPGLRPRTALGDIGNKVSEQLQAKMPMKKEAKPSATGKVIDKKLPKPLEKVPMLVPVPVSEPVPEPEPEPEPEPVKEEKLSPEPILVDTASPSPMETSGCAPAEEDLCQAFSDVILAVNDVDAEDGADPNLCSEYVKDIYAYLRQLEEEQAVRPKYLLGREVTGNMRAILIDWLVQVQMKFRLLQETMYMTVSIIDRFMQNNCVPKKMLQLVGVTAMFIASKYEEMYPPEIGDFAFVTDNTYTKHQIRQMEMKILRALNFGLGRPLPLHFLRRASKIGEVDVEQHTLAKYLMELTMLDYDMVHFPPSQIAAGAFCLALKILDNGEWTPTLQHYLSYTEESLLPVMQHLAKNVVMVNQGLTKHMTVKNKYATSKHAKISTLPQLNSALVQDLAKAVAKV
In test [3] the target is Cyclin-dependent kinase 5/CDK5 activator 1 (Homo sapiens, UniProt Q00535). In words: (§2) Inhibition of human recombinant GST-fused CDK5/P25 expressed in insect Sf9 cells using RBER-CHKtide as substrate assessed as incorporation of 33Pi after 60 mins by microplate scintillation counting analysis.
Sequence of Cyclin-dependent kinase 5/CDK5 activator 1 (Q00535 whole entry, the tested form may be a part): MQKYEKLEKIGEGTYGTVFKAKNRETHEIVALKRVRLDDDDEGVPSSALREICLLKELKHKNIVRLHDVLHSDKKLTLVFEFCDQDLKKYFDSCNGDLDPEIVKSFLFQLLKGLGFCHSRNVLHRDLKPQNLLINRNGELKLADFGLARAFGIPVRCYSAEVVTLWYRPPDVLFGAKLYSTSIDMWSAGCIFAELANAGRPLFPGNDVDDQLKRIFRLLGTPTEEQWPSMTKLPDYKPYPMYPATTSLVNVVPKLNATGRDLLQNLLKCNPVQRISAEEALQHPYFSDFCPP
Sequence of Cyclin-dependent kinase 5/CDK5 activator 1 (Q15078 whole entry, further chain, the tested form may be a part): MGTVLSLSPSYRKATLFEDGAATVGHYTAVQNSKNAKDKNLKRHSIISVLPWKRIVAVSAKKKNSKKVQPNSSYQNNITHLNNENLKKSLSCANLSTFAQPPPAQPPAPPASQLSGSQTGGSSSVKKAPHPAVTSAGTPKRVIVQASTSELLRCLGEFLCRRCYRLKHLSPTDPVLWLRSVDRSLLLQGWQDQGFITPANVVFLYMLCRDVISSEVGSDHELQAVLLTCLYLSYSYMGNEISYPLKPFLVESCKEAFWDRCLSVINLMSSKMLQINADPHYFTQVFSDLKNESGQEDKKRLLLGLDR
In test [4] the target is Cyclin-dependent kinase 1/cyclin B1 (Homo sapiens) (UniProt P06493+P14635). The test is described as §1.
Sequence of Cyclin-dependent kinase 1/cyclin B1 (Homo sapiens) (P06493 whole entry, looked up): as the sequence (P06493 whole entry, the tested form may be a part) above
Sequence of Cyclin-dependent kinase 1/cyclin B1 (Homo sapiens) (P14635 whole entry, looked up): as the sequence (P14635 whole entry, further chain, the tested form may be a part) above
For test [5], the target named is Cyclin-dependent kinase 5/CDK5 activator 1 (Homo sapiens) (UniProt Q00535+Q15078). Described as §2.
Sequence of Cyclin-dependent kinase 5/CDK5 activator 1 (Homo sapiens) (Q00535 whole entry): as the sequence (Q00535 whole entry, the tested form may be a part) above
Sequence of Cyclin-dependent kinase 5/CDK5 activator 1 (Homo sapiens) (Q15078 99-307 partner limits assumed): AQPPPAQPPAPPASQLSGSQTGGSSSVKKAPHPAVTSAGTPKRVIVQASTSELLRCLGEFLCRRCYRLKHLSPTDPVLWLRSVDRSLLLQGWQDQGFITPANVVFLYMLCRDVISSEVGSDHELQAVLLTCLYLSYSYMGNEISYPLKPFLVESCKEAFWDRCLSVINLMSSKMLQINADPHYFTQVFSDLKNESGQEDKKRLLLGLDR

One may read the Ki as a measure of affinity in units of concentration, obtained from inhibition or displacement.

Active and inactive are the calls of the source. No cut-off for these calls is given here.

Consider `CCNC(=O)c1cnc2oc3ccc(O)cc3c2c1-c1ccccc1`, for which the figures for the Ki result in test [1] (sf9), in test [2] and in test [3] were “ND(Insoluble)”, 2.1 µM and 16.7 µM, respectively.

Regarding `CCCNC(=O)c1cnc2oc3ccc(O)cc3c2c1-c1ccccc1`, the Ki was 4.4 µM in test [1] (read-out: Ki), 1.6 µM in test [2] and 14.6 µM in test [3].

Take `CNC(=O)c1cnc2oc3ccc(O)cc3c2c1-c1ccccc1`: the figures for the inhibition constant (Ki) in test [1] (read-out: Ki), in test [2] and in test [3] were 9 µM, > 1000 µM and > 1000 µM, respectively.

With `NCCNC(=O)c1cnc2oc3ccc(O)cc3c2c1-c1ccccc1`, the Ki was 4.8 µM in test [1] (read-out: Ki), 2 µM in test [2] and 12.9 µM in test [3].

For the compound `COc1cc2oc3ncc(OCc4ccccc4)c(-c4ccccc4)c3c2cc1O`, the figures for the Ki result in test [1] (sf9), in test [2] and in test [3] were “ND(Insoluble)”, 1.9 µM and 13.8 µM, respectively.

Consider `COc1cc2oc3ncc(OCc4ccccc4)c(-c4ccccc4)c3c2c(OC)c1O`, for which the inhibition constant (Ki) in test [1] (read-out: Ki) is 5.4 µM; in test [2], 0.2 µM; in test [3], 13.6 µM.

For the compound `COc1cc2c(oc3ncc(OCc4ccccc4)c(-c4ccccc4)c32)c2ccccc12`, the Ki in test [1] (read-out: Ki), in test [2] and in test [3] was > 1000 µM in each case.

`Oc1ccc2oc3ncc(OCc4ccccc4)c(-c4ccccc4)c3c2c1`: the inhibition entry in test [1], in test [4] and in test [5] was “Active” in each case.

`COc1ccc2oc3ncc(OCc4ccccc4)c(-c4ccccc4)c3c2c1`: the Ki in test [3] is 25.1 µM.
